According to PMC2932959 (Journal of medicinal chemistry, 2010):

Columns and labels:
DAT = DAT (Rattus norvegicus, UniProt P23977); assay type: binding
NET = assay type: binding, rat; conditions: selectivity ratio for SERT over NET

Sequence of DAT (P23977 whole entry): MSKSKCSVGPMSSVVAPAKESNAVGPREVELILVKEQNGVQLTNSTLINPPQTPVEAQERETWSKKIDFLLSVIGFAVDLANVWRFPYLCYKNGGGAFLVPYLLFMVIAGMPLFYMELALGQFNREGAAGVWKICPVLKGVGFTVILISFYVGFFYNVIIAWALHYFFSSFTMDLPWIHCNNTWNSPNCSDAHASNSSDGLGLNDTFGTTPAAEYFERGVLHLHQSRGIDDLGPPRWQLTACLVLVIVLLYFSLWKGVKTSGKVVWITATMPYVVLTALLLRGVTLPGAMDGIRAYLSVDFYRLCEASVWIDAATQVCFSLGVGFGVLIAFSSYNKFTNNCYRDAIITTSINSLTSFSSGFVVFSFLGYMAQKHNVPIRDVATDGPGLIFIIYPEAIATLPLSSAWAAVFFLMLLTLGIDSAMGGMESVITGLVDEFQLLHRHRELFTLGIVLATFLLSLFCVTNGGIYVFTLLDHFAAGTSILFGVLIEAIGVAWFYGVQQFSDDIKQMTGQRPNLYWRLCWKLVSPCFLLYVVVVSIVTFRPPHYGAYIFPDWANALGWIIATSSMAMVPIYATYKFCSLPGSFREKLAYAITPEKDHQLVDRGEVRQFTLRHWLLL

SMILES	Ki (DAT)	Ki(DAT)/Ki (SERT) (DAT; selectivity ratio for SERT over DAT)	Ki(NET)/Ki (SERT) (NET)
CN(C)CCCC1(c2ccc(F)cc2)OCc2cc(Br)ccc21 (stereo not shown) [Compound 5, 3-(5-bromo-1-(4-fluorophenyl)-1,3-dihydroisobenzofuran-1-yl)-N,N-dimethylpropan-1-amine]	1.65 ± 0.112 µM	1590	>10,000
COc1cccc(-c2ccc3c(c2)COC3(CCCN(C)C)c2ccc(F)cc2)c1 (stereo not shown) [Compound 11, 3-(1-(4-Fluorophenyl)-5-(3’-methoxyphenyl)-1,3-dihydroisobenzofuran-1-yl)-N,N-dimethylpropan-1-amine]	–	–	284
CN(C)CCCC1(c2ccc(F)cc2)OCc2cc(-c3cc(F)cc(F)c3)ccc21.O=C(O)C(=O)O (stereo not shown) [Compound 13, 3-(5-(3,5-Difluorophenyl)-1-(4-fluorophenyl)-1,3-dihydroisobenzofuran-1-yl)-N,N-dimethylpropan-1-amine oxalate]	–	–	19
CN(C)CCCC1(c2ccc(F)cc2)OCc2cc(CCc3ccccc3)ccc21 (stereo not shown) [Compound 14, 3-(1-(4-Fluorophenyl)-5-phenethyl-1,3-dihydroisobenzofuran-1-yl)-N,N-dimethylpropan-1-amine]	–	–	122
CN(C)CCCC1(c2ccc(F)cc2)OCc2cc(-c3cccc(F)c3)ccc21 (stereo not shown) [Compound 15, 3-(5-(3-Fluorophenyl)-1-(4-fluorophenyl)-1,3-dihydroisobenzofuran-1-yl)-N,N-dimethylpropan-1-amine]	–	–	193
